In patent US20200261391A1, “METHODS OF REDUCING THE RISK OF A CARDIOVASCULAR EVENT IN A STATIN-TREATED SUBJECT BY INCREASING SERUM AND PLASMA EPA AND DPA LEVELS” (Amarin Pharmaceuticals Ireland Limited, priority 2019, published 2020):

Test system: patients with elevated triglyceride levels on statin therapy
Experiment: REDUCE-IT trial: safety (treatment-emergent adverse events, bleeding, atrial fibrillation/flutter)
[1] = TEAE by preferred term, Safety population, N = 4089
[2] = gastrointestinal TEAEs, Safety population, N = 4089
[3] = serious bleeding TEAE by preferred term, N = 4089
[4] = serious bleeding TEAE, Safety population, N = 4089

Description: Specification of Variables and Procedures: Safety assessments included adverse events, clinical laboratory measurements (chemistry, hematology), 12-lead ECGs, vital signs (systolic and diastolic blood pressure, heart rate, respiratory rate, and body temperature), weight, waist circumference, and physical examinations as per Study Procedures in Table 1. […] All laboratory test results were evaluated by the investigator as to their clinical significance. Any observations at physical examinations or laboratory values considered by the investigator to be clinically significant were considered an adverse event.
An adverse event can therefore be any unfavorable and/or unintended sign (including an abnormal laboratory finding), symptom, or disease temporally associated with the use of an investigational medication product, whether or not related to the investigational medication product. All adverse events, including observed or volunteered problems, complaints, or symptoms, were recorded on the appropriate CRF. Each adverse event was evaluated for duration, intensity, and causal relationship with the study medication or other factors.
Serious Adverse Events: A serious adverse event (SAE) is defined as an adverse event that meets any of the following criteria: • Results in death; • Is life-threatening—The term “life-threatening” in the definition of “serious” refers to an event in which the patient was at risk of death at the time of the event. […] Important medical events that may not result in death, be life threatening, or require hospitalization were considered an SAE when, based upon appropriate medical judgment, they may have jeopardized the patient and may have required medical or surgical intervention to prevent one of the outcomes listed above.
Adverse Events of Special Interest: Bleeding-related adverse events, glucose control (fasting blood glucose and HbA1c), and indicators of hepatic disorders (e.g., ALT or AST increases >3×ULN, total bilirubin increases of ≥2×ULN) were summarized separately and compared between treatment groups.
Analysis of Safety: All analyses of safety were conducted on the safety population, which was defined as all randomized patients. The safety assessment was based on the frequency of adverse events, physical exams, vital signs and safety laboratory tests. AEs with new onset during the study between the initiation of study drug and 30 days after the last dose of study drug for each patient was considered treatment-emergent (TEAEs). This included any AE with onset prior to initiation of study drug and increased severity after the treatment initiation.
This included overall incidence rates (regardless of severity and relationship to study drug), and incidence rates for moderate or severe adverse events. A summary of SAEs and adverse events leading to early discontinuation (for ≥30 days) were presented through data listings. Patients who restarted study drug were included in the summary of AEs leading to discontinuation. Safety laboratory tests and vital signs were summarized by post-treatment change from baseline for each of the parameters using descriptive statistics by treatment group. Those patients with significant laboratory abnormalities were identified in data listings. Additional safety parameters were summarized in data listings.

SMILES: CC/C=C\C/C=C\C/C=C\C/C=C\C/C=C\CCCC(=O)OCC [icosapent ethyl, eicosapentaenoic acid ethyl ester]
- Pneumonia, number of patients with serious treatment-emergent adverse event (N = 4089): 105
- Pneumonia, patients with serious treatment-emergent adverse event (N = 4089): 2.6%
- Serious TEAE Leading to Death, % of patients (Safety population, N = 4089): (2.3%)
- Serious TEAE Leading to Death, number of patients (Safety population, N = 4089): 94
- Serious TEAE Leading to Withdrawal of Study Drug, % of patients (Safety population, N = 4089): (2.2%)
- Serious TEAE Leading to Withdrawal of Study Drug, number of patients (Safety population, N = 4089): 88
- Serious TEAE, % of patients (Safety population, N = 4089): (30.6%)
- Serious TEAE, number of patients (Safety population, N = 4089): 1252
- Subjects with at Least One TEAE, % of patients (Safety population, N = 4089): (81.8%)
- Subjects with at Least One TEAE, number of patients (Safety population, N = 4089): 3343
- TEAE Leading to Withdrawal of Study Drug, % of patients (Safety population, N = 4089): (7.9%)
- TEAE Leading to Withdrawal of Study Drug, number of patients (Safety population, N = 4089): 321
- Anemia, % of patients [1]: 4.7%
- Anemia, number of patients [1]: 191
- Angina pectoris, % of patients [1]: 4.9%
- Angina pectoris, number of patients [1]: 200
- Arthralgia, % of patients [1]: 7.7%
- Arthralgia, number of patients [1]: 313
- Atrial fibrillation, % of patients [1]: 5.3%
- Atrial fibrillation, number of patients [1]: 215
- Back pain, % of patients [1]: 8.2%
- Back pain, number of patients [1]: 335
- Bronchitis, % of patients [1]: 7.5%
- Bronchitis, number of patients [1]: 306
- Cataract, % of patients [1]: 5.7%
- Cataract, number of patients [1]: 233
- Chest pain, % of patients [1]: 6.7%
- Chest pain, number of patients [1]: 273
- Constipation, % of patients [1]: 5.4%
- Constipation, number of patients [1]: 221
- Cough, % of patients [1]: 5.9%
- Cough, number of patients [1]: 241
- Diarrhea, % of patients [1]: 9.0%
- Diarrhea, number of patients [1]: 367
- Dizziness, % of patients [1]: 5.7%
- Dizziness, number of patients [1]: 235
- Dyspnea, % of patients [1]: 6.2%
- Dyspnea, number of patients [1]: 254
- Fatigue, % of patients [1]: 5.6%
- Fatigue, number of patients [1]: 228
- Hypertension, % of patients [1]: 7.8%
- Hypertension, number of patients [1]: 320
- Influenza, % of patients [1]: 6.4%
- Influenza, number of patients [1]: 263
- Nasopharyngitis, % of patients [1]: 7.7%
- Nasopharyngitis, number of patients [1]: 314
- Osteoarthritis, % of patients [1]: 5.9%
- Osteoarthritis, number of patients [1]: 241
- Pain in extremity, % of patients [1]: 5.7%
- Pain in extremity, number of patients [1]: 235
- Peripheral edema, % of patients [1]: 6.5%
- Peripheral edema, number of patients [1]: 267
- Pneumonia, % of patients [1]: 6.4%
- Pneumonia, number of patients [1]: 263
- Upper respiratory tract infection, % of patients [1]: 7.6%
- Upper respiratory tract infection, number of patients [1]: 312
- Urinary tract infection, % of patients [1]: 6.2%
- Urinary tract infection, number of patients [1]: 253
- Gastroesophageal Reflux Disease, % of patients [2]: 3.0%
- Gastroesophageal Reflux Disease, number of patients [2]: 124
- Gastrointestinal disorders (primary system organ class), % of patients [2]: 33.0%
- Gastrointestinal disorders (primary system organ class), number of patients [2]: 1350
- Nausea, % of patients [2]: 4.6%
- Nausea, number of patients [2]: 190
- anemia, adverse event rate (in vivo): 4.7%
- atrial fibrillation or flutter requiring hospitalization (adjudicated tertiary endpoint), rate (in vivo): 3.1%
- atrial fibrillation, adverse event rate (in vivo): 5.3%
- diarrhea, adverse event rate (in vivo): 9%
- gastrointestinal adverse events, rate (in vivo): 33.0%
- gastrointestinal bleeding (serious), rate (in vivo): 1.5%
- new or unexpected important adverse effects in the safety population (in vivo): no new or unexpected important adverse effects
- overall adverse event rates compared with placebo (in vivo): similar
- peripheral edema, adverse event rate (in vivo): 6.5%
- serious central nervous system bleeding, rate (in vivo): 0.3%
- tolerability (in vivo): well tolerated
- treatment-emergent serious adverse events for bleeding, rate (in vivo): 2.7%
- rates of adverse events or serious adverse events leading to withdrawal of study drug vs placebo (in vivo, listed as AMR101): no significant differences
- Aortic Aneurysm Rupture, % of patients [3]: (0.0%)
- Aortic Aneurysm Rupture, number of patients [3]: 1
- Brain Contusion, % of patients [3]: (0.0%)
- Brain Contusion, number of patients [3]: 0
- Catheter Site Hemorrhage, % of patients [3]: (0.0%)
- Catheter Site Hemorrhage, number of patients [3]: 0
- Cerebral Hemorrhage, % of patients [3]: (0.0%)
- Cerebral Hemorrhage, number of patients [3]: 0
- Cystitis Hemorrhagic, % of patients [3]: (0.0%)
- Cystitis Hemorrhagic, number of patients [3]: 2
- Diverticulitis Intestinal Hemorrhagic, % of patients [3]: (0.0%)
- Diverticulitis Intestinal Hemorrhagic, number of patients [3]: 0
- Diverticulum Intestinal Hemorrhagic, % of patients [3]: (0.1%)
- Diverticulum Intestinal Hemorrhagic, number of patients [3]: 3
- Duodenal Ulcer Hemorrhage, % of patients [3]: (0.0%)
- Duodenal Ulcer Hemorrhage, number of patients [3]: 2
- Ecchymosis, % of patients [3]: (0.0%)
- Ecchymosis, number of patients [3]: 1
- Epistaxis, % of patients [3]: (0.2%)
- Epistaxis, number of patients [3]: 7
- Esophageal Hemorrhage, % of patients [3]: (0.0%)
- Esophageal Hemorrhage, number of patients [3]: 0
- Extravasation Blood, % of patients [3]: (0.0%)
- Extravasation Blood, number of patients [3]: 1
- Gastric Hemorrhage, % of patients [3]: (0.0%)
- Gastric Hemorrhage, number of patients [3]: 1
- Gastric Ulcer Hemorrhage, % of patients [3]: (0.1%)
- Gastric Ulcer Hemorrhage, number of patients [3]: 3
- Gastrointestinal Angiodysplasia Hemorrhagic, % of patients [3]: (0.0%)
- Gastrointestinal Angiodysplasia Hemorrhagic, number of patients [3]: 1
- Gastrointestinal Hemorrhage, % of patients [3]: (0.6%)
- Gastrointestinal Hemorrhage, number of patients [3]: 26
- Genital Hemorrhage, % of patients [3]: (0.0%)
- Genital Hemorrhage, number of patients [3]: 1
- Hemarthrosis, % of patients [3]: (0.0%)
- Hemarthrosis, number of patients [3]: 0
- Hematemesis, % of patients [3]: (0.1%)
- Hematemesis, number of patients [3]: 3
- Hematochezia, % of patients [3]: (0.0%)
- Hematochezia, number of patients [3]: 1
- Hematoma, % of patients [3]: (0.0%)
- Hematoma, number of patients [3]: 1
- Hematuria, % of patients [3]: (0.2%)
- Hematuria, number of patients [3]: 8
- Hemoptysis, % of patients [3]: (0.0%)
- Hemoptysis, number of patients [3]: 1
- Hemorrhagic Anemia, % of patients [3]: (0.1%)
- Hemorrhagic Anemia, number of patients [3]: 4
- Hemorrhagic Duodenitis, % of patients [3]: (0.0%)
- Hemorrhagic Duodenitis, number of patients [3]: 0
- Hemorrhagic Transformation Stroke, % of patients [3]: (0.0%)
- Hemorrhagic Transformation Stroke, number of patients [3]: 1
- Hemorrhoidal Hemorrhage, % of patients [3]: (0.1%)
- Hemorrhoidal Hemorrhage, number of patients [3]: 3
- Hemothorax, % of patients [3]: (0.0%)
- Hemothorax, number of patients [3]: 1
- Immune Thrombocytopenic Purpura, % of patients [3]: (0.0%)
- Immune Thrombocytopenic Purpura, number of patients [3]: 0
- Intra-Abdominal Hemorrhage, % of patients [3]: (0.0%)
- Intra-Abdominal Hemorrhage, number of patients [3]: 1
- Intracranial Hemorrhage, % of patients [3]: (0.0%)
- Intracranial Hemorrhage, number of patients [3]: 0
- Large Intestinal Hemorrhage, % of patients [3]: (0.0%)
- Large Intestinal Hemorrhage, number of patients [3]: 1
- Lower Gastrointestinal Hemorrhage, % of patients [3]: (0.1%)
- Lower Gastrointestinal Hemorrhage, number of patients [3]: 5
- Mallory-Weiss Syndrome, % of patients [3]: (0.0%)
- Mallory-Weiss Syndrome, number of patients [3]: 1
- Melaena, % of patients [3]: (0.1%)
- Melaena, number of patients [3]: 3
- Menorrhagia, % of patients [3]: (0.0%)
- Menorrhagia, number of patients [3]: 1
- Mouth Hemorrhage, % of patients [3]: (0.0%)
- Mouth Hemorrhage, number of patients [3]: 0
- Pancreatitis Hemorrhagic, % of patients [3]: (0.0%)
- Pancreatitis Hemorrhagic, number of patients [3]: 1
- Peptic Ulcer Hemorrhage, % of patients [3]: (0.0%)
- Peptic Ulcer Hemorrhage, number of patients [3]: 1
- Pericardial Hemorrhage, % of patients [3]: (0.0%)
- Pericardial Hemorrhage, number of patients [3]: 0
- Post Procedural Hematoma, % of patients [3]: (0.0%)
- Post Procedural Hematoma, number of patients [3]: 1
- Post Procedural Hematuria, % of patients [3]: (0.0%)
- Post Procedural Hematuria, number of patients [3]: 0
- Post Procedural Hemorrhage, % of patients [3]: (0.1%)
- Post Procedural Hemorrhage, number of patients [3]: 5
- Rectal Hemorrhage, % of patients [3]: (0.2%)
- Rectal Hemorrhage, number of patients [3]: 10
- Renal Hemorrhage, % of patients [3]: (0.0%)
- Renal Hemorrhage, number of patients [3]: 0
- Retinal Hemorrhage, % of patients [3]: (0.0%)
- Retinal Hemorrhage, number of patients [3]: 1
- Retroperitoneal Hematoma, % of patients [3]: (0.0%)
- Retroperitoneal Hematoma, number of patients [3]: 0
- Retroperitoneal Hemorrhage, % of patients [3]: (0.0%)
- Retroperitoneal Hemorrhage, number of patients [3]: 1
- Shock Hemorrhagic, % of patients [3]: (0.0%)
- Shock Hemorrhagic, number of patients [3]: 2
- Subarachnoid Hemorrhage, % of patients [3]: (0.0%)
- Subarachnoid Hemorrhage, number of patients [3]: 2
- Subdural Hematoma, % of patients [3]: (0.2%)
- Subdural Hematoma, number of patients [3]: 9
- Subdural Hemorrhage, % of patients [3]: (0.0%)
- Subdural Hemorrhage, number of patients [3]: 2
- Traumatic Hematoma, % of patients [3]: (0.0%)
- Traumatic Hematoma, number of patients [3]: 2
- Traumatic Intracranial Hemorrhage, % of patients [3]: (0.0%)
- Traumatic Intracranial Hemorrhage, number of patients [3]: 0
- Ulcer Hemorrhage, % of patients [3]: (0.0%)
- Ulcer Hemorrhage, number of patients [3]: 1
- Upper Gastrointestinal Hemorrhage, % of patients [3]: (0.1%)
- Upper Gastrointestinal Hemorrhage, number of patients [3]: 3
- Urinary Bladder Hemorrhage, % of patients [3]: (0.0%)
- Urinary Bladder Hemorrhage, number of patients [3]: 1
- Bleeding related disorders, % of patients [4]: (2.7%)
- Bleeding related disorders, number of patients [4]: 111
- Central nervous system bleeding, % of patients [4]: (0.3%)
- Central nervous system bleeding, number of patients [4]: 14
- Gastrointestinal bleeding, % of patients [4]: (1.5%)
- Gastrointestinal bleeding, number of patients [4]: 62
- Other bleeding, % of patients [4]: (1.0%)
- Other bleeding, number of patients [4]: 41
